According to patent US20040259142A1, “Products and methods” (Imperial College Innovations Limited, priority 2003, published 2004):
One block for each compound: values may come before it.

How the values were obtained:
[1] = molecular target: T1, recombinant soluble L-selectin IgG chimera (Homo sapiens, UniProt P14151); test: L-selectin binding to lipid-linked oligosaccharide array on nitrocellulose; conditions: array IDs 1-30 on nitrocellulose, 10 pmol per spot
T1 construct: recombinant soluble L-selectin IgG chimera; made in house; host or cells: transfected Chinese hamster ovary cells (provided by Dr Gray Shaw, Genetics Institute)
T1 sequence (P14151 39-332 limits assumed): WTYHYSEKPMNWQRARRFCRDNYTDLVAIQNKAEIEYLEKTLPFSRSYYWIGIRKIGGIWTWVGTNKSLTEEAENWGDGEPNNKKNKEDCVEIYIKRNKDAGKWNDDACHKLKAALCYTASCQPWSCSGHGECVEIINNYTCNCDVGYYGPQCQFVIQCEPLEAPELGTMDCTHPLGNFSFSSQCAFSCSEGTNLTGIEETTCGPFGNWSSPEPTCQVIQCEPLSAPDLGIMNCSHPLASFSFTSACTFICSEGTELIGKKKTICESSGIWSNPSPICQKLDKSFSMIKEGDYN
Excerpt: (§1) The lipid-linked oligosaccharides (in chloroform:methanol:water, 25:25:8 v/v) were applied by jet spray with a sample applicator (Linomat IV, Camag, Switzerland) as 2 mm bands for ‘miniarray’, or as […] spots for ‘microarray’ format, onto 0.45 μm nitrocellulose or 0.2 μm PVDF membranes (both from Bio-Rad, Hemel Hempstead, UK), or aluminium-backed silica gel plates (Merck). When fluorescent NGLs were applied onto the membranes, and examined directly under UV light, 1-2 pmol was clearly visible above the background on the PVDF, whereas on nitrocellulose, 5 pmol was required due to a high fluorescent background. For detection, therefore, the fluorescent NGLs were printed onto PVDF membranes; the non-fluorescent lipid-linked oligosaccharides were printed onto silica gel plates and detected with primulin stain.
Selectin-binding experiments were carried out as above except that the membranes were ‘blocked’ 1% (w/v) casein in 10 mM Tris-HCl buffer pH 7.4 containing 50 mM CaCl2 and 150 mM NaCl (TBS/Ca) and overlaid for 2 h with L-selectin (1 μg/ml pre-complexed^42 with biotinylated anti-human IgG from Vector), or E-selectin (at 1 μg/ml) in TBS/Ca. Binding of L-selectin was detected by overlaying with HRP-conjugated streptavidin (Sigma), 10 μg/ml, in TBS/Ca containing 1% casein. Binding of E-selectin was detected by overlaying with biotinylated anti-human IgM (Sigma), 5 μg/ml, followed by the HRP-conjugated streptavidin.

[2] = molecular target: T2, interferon γ (IFN-γ) (Homo sapiens, UniProt P01579); test: interferon γ binding to lipid-linked oligosaccharide array on nitrocellulose
T2 construct: purchased Sigma; host or cells: Escherichia coli
T2 sequence (P01579 24-166): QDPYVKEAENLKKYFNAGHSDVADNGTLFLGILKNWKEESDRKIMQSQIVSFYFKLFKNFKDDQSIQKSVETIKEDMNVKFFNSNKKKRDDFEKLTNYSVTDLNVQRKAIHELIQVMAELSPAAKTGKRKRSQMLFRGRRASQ
Excerpt: as §1
(§2) For cytokine/chemokine-binding experiments, the membranes were blocked for 1 h with 3% (w/v) BSA in 10 mM Tris-HCl buffer containing 150 mM NaCl, 2 mM CaCl2 and 0.8 mM MgCl2 (TNCM), overlaid with INFγ or RANTES at 1 μg per ml diluted in TNCM/BSA, incubated for 16 h at 4° C.
(§3) The membranes were washed four times, for 30 min with 10 mM Tris-HCl buffer containing 20 mM NaCl, 5 mM CaCl2 and 2 mM MgCl2 (TNCM-L) to minimize elution of the bound proteins^31. […] Carbohydrate-binding experiments with NGLs resolved by TLC were performed as described^12.

[3] = molecular target: T3, chemokine RANTES (Homo sapiens, UniProt P13501); test: RANTES binding to lipid-linked oligosaccharide array on nitrocellulose; conditions: array IDs 1-30 at 10 pmol per spot
T3 construct: purchased R&D systems; host or cells: Escherichia coli
T3 sequence (P13501 24-91): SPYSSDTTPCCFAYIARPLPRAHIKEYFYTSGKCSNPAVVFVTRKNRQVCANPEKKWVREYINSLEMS
Excerpt: as §1, §2, §3

[4] = molecular target: TSG-6 (Homo sapiens, UniProt P98066); test: TSG-6 binding to HA and HA NGL on nitrocellulose-coated FastSlide; conditions: 2 mm bands on FastSlide, DAB colour, FIG. 9
Excerpt: NGL samples in organic-based solvent mixture (chloroform/methanol/water 25:25:8, by vol), and also polysaccharides, glycosaminoglycans (GAGs) and glycoproteins in water, were arrayed with N2-assisted jet spray as 1-2 mm bands or 150 μm spots.
Binding to the arrayed samples was detected using biotinylated antibodies directed to the proteins being investigated, followed by conventional ELISA-DAB colour reaction or by using CyS-labelled streptavidin.
Similarly, different amounts of hyaluronic acid polysaccharide (HA) (5 to 500 ng) and its oligosaccharide derived NGL, HA 8mer-DHPE (0.05 to 5 pmol), were applied as 2 mm bands onto a nitrocellulose coated FastSlide. The interactions of TSG-6 (a protein which can bind to the HA) with the carbohydrate-containing molecules on the support material, HA and the HA NGL, are shown in FIG. 9.

[5] = tested on: monoclonal antibody HNK-1 (anti-HNK-1); test: anti-HNK-1 binding to lipid-linked oligosaccharide arrays on nitrocellulose; conditions: array IDs 1-30 on nitrocellulose, 10 pmol per spot
Excerpt: as §1
(§4) Experiments were carried out at ambient temperature unless stated otherwise. The dilutions of the antibodies used were those recommended by the manufacturers or providers. Concentrations where known are indicated. For antibody-binding experiments, the membranes were ‘blocked’ for 1 h with 3% (w/v) bovine serum albumin (BSA) in phosphate buffered saline (10 mM phosphate buffer containing 150 mM NaCl) pH 7.4 (PBS), and overlaid with for 2 h with the antibodies diluted in phosphate buffered saline containing 3% BSA (PBS/BSA). […]

[6] = tested on: anti-L5 monoclonal antibody; test: anti-L5 binding to lipid-linked oligosaccharide arrays on nitrocellulose; set-up: species or system rat; conditions: array IDs 1-30 on nitrocellulose, 10 pmol per spot
Excerpt: as §1, §4

[7] = tested on: anti-SSEA-1 monoclonal antibody; test: anti-SSEA-1 binding to lipid-linked oligosaccharide arrays on membranes; set-up: species or system murine; conditions: array IDs 1-30 on nitrocellulose, 10 pmol per spot
Excerpt: as §1, §4

[8] = tested on: monoclonal antibody C-14; test: C-14 antibody binding to lipid-linked oligosaccharide array on nitrocellulose; set-up: species or system murine; conditions: array IDs 1-30 on nitrocellulose, 10 pmol per spot
Excerpt: as §1, §4

[9] = array IDs 1-30 at 10 pmol per spot
[10] = array IDs 1-30 printed at 1 pmol per spot

TSG-6, sequence (P98066 18-277, species assumed): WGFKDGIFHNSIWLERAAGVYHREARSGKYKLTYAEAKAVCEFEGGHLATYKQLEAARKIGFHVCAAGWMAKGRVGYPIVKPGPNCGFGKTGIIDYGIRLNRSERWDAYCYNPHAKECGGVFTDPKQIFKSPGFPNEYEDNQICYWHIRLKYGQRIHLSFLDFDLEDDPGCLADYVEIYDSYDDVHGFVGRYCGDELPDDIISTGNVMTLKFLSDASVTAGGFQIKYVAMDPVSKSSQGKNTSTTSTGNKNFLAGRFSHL

Compound: CC(=O)NC1C(O)CC(OC2C(O)C(CO)OC(OC3C(CO)OC(OC4C(O)C(CO)OC(OC5C(CO)OC(O)C(O)C5O)C4O)C(NC(C)=O)C3OC3OC(C)C(O)C(O)C3O)C2O)(C(=O)O)OC1C(O)C(O)CO (stereo not shown) [ID 14, 3′-SA-Le^x-5]
- L-selectin binding [1]: weak

Compound: 6′-SU-3′-SA-Le^x5 [ID 19]
- IFN-γ binding [2, 9]: additional or increased binding signals
- RANTES binding [3]: additional or increased binding signals

Compound: HNK-1 [ID 20]
- IFN-γ binding [2, 9]: additional or increased binding signals
- binding of anti-HNK-1 [5]: bound
- L-selectin binding [1]: binding
- RANTES binding [3]: additional or increased binding signals

Compound: lacto-N-fucopentaose III [ID 10]
- binding of anti-L5 [6]: bound
- binding of anti-SSEA-1 [7]: bound

Compound: 3′,6-SU-Le^x-5 [ID 17]
- IFN-γ binding [2, 10]: weak binding

Compound: 3′-SU-Le^x-5 [ID 16]
- IFN-γ binding [2, 10]: weak binding

Results, then the compound that gave them:

- L-selectin binding [1]: binding
Compound: Man5-phosphate [ID 21]

- IFN-γ binding [2, 10]: clear preference
- L-selectin binding [1]: binding
Compound: O=C(O)C1=C[C@H](O)[C@@H](OS(=O)(=O)O)[C@H](O[C@H]2[C@H](O)[C@@H](NS(=O)(=O)O)[C@@H](O)O[C@@H]2COS(=O)(=O)O)O1 [ID 28, HS/HEP 2mer]

- sensitivity of detection of TSG-6 binding [4]: nanograms
Compound: hyaluronic acid [HA polysaccharide]

- binding of C-14 antibody [8]: bound
Compound: CC(=O)NC1C(OC2C(O)C(CO)OC(OC3C(CO)OC(O)C(O)C3O)C2O)OC(CO)C(OC2OC(CO)C(O)C(O)C2OC2OC(C)C(O)C(O)C2O)C1OC1OC(C)C(O)C(O)C1O (stereo not shown) [ID 12, lacto-N-neo-difucohexaose I]
